Reference: patent US8324422B2, “Enhydrazone esters for treating asthma, allergy and inflammation” (Kuwait University, priority 2008, dated 2012)

How the values were obtained:
RBL-2H3 mast cells [1] = system: RBL-2H3 mast cells
[2] = system: human peripheral blood eosinophils; assay: viability of eosinophils at concentrations that abolished EPO release; type: cell-based
Description: In untreated cells, C5a induced the release of 20-30% of the total cellular content of EPO.

[3] = system: mouse peritoneal macrophages; assay: viability of macrophages after overnight incubation; type: cell-based
[4] = system: mouse peritoneal macrophages; assay: LPS-stimulated release of TNF-α from mouse peritoneal macrophages; type: cell-based; details: for IC50: LPS 1 μg/mL for 18 hours, 30 min pre-treatment, ELISA, read-out: concentration that achieved 50% inhibition of TNF-α release
Experimental: The antiinflammatory effect of CEE-1 and CEE-2 was tested on LPS-stimulated release of tumor necrotic factor-α (TNF-α) from mouse peritoneal macrophages. Thioglycollate-induced peritoneal macrophages were obtained by peritoneal lavage of Balb c mice. Macrophages purified by adherence to plastic plate were cultured in a supplemented RPMI medium and pre-treated with CEE-1, CEE-2 or their solvent (DMSO) for 30 minutes before being stimulated with LPS (1 μg/mL) for 18 hours. The amount of TNF-α released into the supernatant was determined by ELISA using commercially available kits.
FIG. 4 illustrates the inhibitory effect of CEE-1 and CEE-2 on the release of TNF-α from LPS-stimulated mouse peritoneal macrophages. Cells were pre-treated with the drugs for 30 minutes before stimulation with LPS (1 μg/mL). The net uninhibited releases were in the range of 130-185 pg/ml. Values are shown as mean±SD, n=3.

RBL-2H3 mast cells [5] = assay: antigen induced IgE-mediated degranulation (β-hexoseaminidase release) of mast cells (RBL-2H3); type: cell-based, rat; details: anti-DNP IgE sensitized, DNP-BSA 100 ng/mL, 10 min pre-treatment; read-out: concentration achieving 50% inhibition of β-hexoseaminidase release
Experimental: The anti-allergic effect was tested on IgE-dependent mast cell degranulation using the rat basophilic leukemia (RBL-2H3) cell line model. The cells were passively sensitized with 0.5 μg/mL anti-DNP monoclonal IgE antibody for 1 hour, and then washed twice to remove unbound antibody. They were then separately pre-treated with CEE-1, CEE-2 or their solvent (DMSO) for 10 minutes before being stimulated with the specific antigen DNP-BSA (100 ng/mL). After 30 minutes of incubation, the amount of granular β-hexoseaminidase released into the supernatant (index of degranulation) was determined photometrically.
FIG. 3 illustrates the inhibition of antigen induced IgE-mediated degranulation (β-hexoseaminidase release) of mast cells (RBL-2H3) by CEE-1 and CEE-2. Cells were incubated with CEE-1 and CEE-2 for 10 minutes before stimulation. Control uninhibited releases were in the range of 15-26% of total cell content. Results are shown as mean±SD, n=3.

[6] = system: human peripheral blood eosinophils; assay: complement C5a-stimulated degranulation (EPO release) of human eosinophils; type: cell-based; details: for IC50: C5a (30 nM) + cytochalasin B, 10 min pre-incubation, 30 min at 37° C., read-out: concentration achieving 50% inhibition of EPO release; for effect on EPO release at high concentration: at the concentrations of 300 nM and above
Experimental: Example 1 involves the testing of the effect of complement C5a-induced degranulation of human blood eosinophils, and IgE-dependent degranulation of mast cells. Human peripheral blood eosinophils were purified to >98% by the immunomagnetic method. Aliquots containing 2.5×10^4 cells were added to each well of a 96-well microplate. The cells were separately pre-incubated for 10 minutes with CEE-1, CEE-2 or the drug solvent (DMSO) and then subsequently stimulated with recombinant human complement C5a (30 nM) in the presence of cytochalasin B (5 μg/mL). The reaction was allowed to proceed for 30 minutes at 37° C. The amount of the granular eosinophil peroxidases (EPO) released into the supernatant (as index of degranulation) was determined by the o-phenylenediamine method. The amount of EPO released was expressed as a percentage of the total cell content.
Cells were incubated with the each of CEE-1 and CEE-2 for 10 minutes before stimulation. Control uninhibited releases were in the range of 20-30% of total cell content. Results are shown as mean±SD, n=4.

IC50 [4] [nM]	IC50 [6] [nM]	SMILES	cellular toxicity (trypan blue exclusion test) (RBL-2H3 mast cells [1])	viability of the cells [2]	viability of the cells [3]	effect on TNF-α release at 10 μM [4]	IC50 (RBL-2H3 mast cells [5]) [nM]	effect on EPO release at high concentration [6]
80	45	CCOC(=O)C1C(=O)C=C(NNc2ccccc2)CC1c1ccccc1 (stereo not shown) [CEE-1, ethyl 4-phenylhydrazinocyclohex-3-en-2-oxo-6-phenyl-1-oate]	no cellular toxicity	did not significantly affect the viability of the cells	no effect on their viability	completely abolished the release	800	completely abolished EPO release
82	94	COC(=O)C1C(=O)C=C(NNc2ccccc2)CC1c1ccccc1 (stereo not shown) [CEE-2, methyl 4-phenylhydrazinocyclohex-3-en-2-oxo-6-phenyl-1-oate]	no cellular toxicity	did not significantly affect the viability of the cells	no effect on their viability	completely abolished the release	1200	completely abolished EPO release
